Reference: ChEMBL document CHEMBL3352739, “Comparative in vivo evaluation of polyalkoxy substituted 4H-chromenes and oxa-podophyllotoxins as microtubule destabilizing agents in the phenotypic sea urchin embryo assay” (2014)

Columns and labels:
MDA-MB-435 = assay: Growth inhibition of human MDA-MB-435 cells after 48 hrs by sulforhodamine B assay; format: functional; conditions: MDA-MB-435, 48 h
[1] = Growth inhibition of human UO31 cells after 48 hrs by sulforhodamine B assay; format: functional; conditions: UO-31, 48 h
[2] = Growth inhibition of human HOP92 cells after 48 hrs by sulforhodamine B assay; format: functional; conditions: HOP-92, 48 h
[3] = Growth inhibition of human HCT15 cells after 48 hrs by sulforhodamine B assay; format: functional; conditions: HCT-15, 48 h
MCF7 = assay: Growth inhibition of human MCF7 cells after 48 hrs by sulforhodamine B assay; format: functional; conditions: MCF7, 48 h
Paracentrotus lividus [4] = assay: Antimitotic microtubule destabilizing activity in Paracentrotus lividus L embryos assessed as induction of cleavage alteration
786-0 = assay: Growth inhibition of human 786-0 cells after 48 hrs by sulforhodamine B assay; format: functional; conditions: 786-0, 48 h
[5] = Growth inhibition of human MOLT4 cells after 48 hrs by sulforhodamine B assay; format: functional; conditions: MOLT-4, 48 h
Paracentrotus lividus [6] = assay: Antimitotic microtubule destabilizing activity in Paracentrotus lividus L embryos assessed as induction of embryo spinning
MDA-MB-468 = assay: Growth inhibition of human MDA-MB-468 cells after 48 hrs by sulforhodamine B assay; format: functional; conditions: MDA-MB-468, 48 h
M14 = assay: Growth inhibition of human M14 cells after 48 hrs by sulforhodamine B assay; format: functional; conditions: M14, 48 h
[7] = Growth inhibition of human COLO205 cells after 48 hrs by sulforhodamine B assay; format: functional; conditions: COLO 205, 48 h
SNB-75 = assay: Growth inhibition of human SNB75 cells after 48 hrs by sulforhodamine B assay; format: functional; conditions: SNB-75, 48 h
[8] = Growth inhibition of human EKVX cells after 48 hrs by sulforhodamine B assay; format: functional
A549 = assay: Growth inhibition of human A549/ATCC cells after 48 hrs by sulforhodamine B assay; format: functional; conditions: A549, 48 h
SF-268 = assay: Growth inhibition of human SF268 cells after 48 hrs by sulforhodamine B assay; format: functional; conditions: SF-268, 48 h
[9] = Cytotoxicity against human NCI60 cells; format: functional
CCRF-CEM = assay: Growth inhibition of human CCRF-CEM cells after 48 hrs by sulforhodamine B assay; format: functional
NCI-H460 = assay: Growth inhibition of human NCI-H460 cells after 48 hrs by sulforhodamine B assay; format: functional; conditions: NCI-H460, 48 h
NCI-H226 = assay: Growth inhibition of human NCI-H226 cells after 48 hrs by sulforhodamine B assay; format: functional; conditions: NCI-H226, 48 h
Paracentrotus lividus [10] = assay: Antimitotic microtubule destabilizing activity in Paracentrotus lividus L embryos assessed as induction of cleavage arrest
K562 = assay: Growth inhibition of human K562 cells after 48 hrs by sulforhodamine B assay; format: functional; conditions: K562, 48 h
[11] = Growth inhibition of human SF539 cells after 48 hrs by sulforhodamine B assay; format: functional; conditions: SF-539, 48 h
[12] = Growth inhibition of human OVCAR4 cells after 48 hrs by sulforhodamine B assay; format: functional; conditions: OVCAR-4, 48 h
[13] = Growth inhibition of human OVCAR3 cells after 48 hrs by sulforhodamine B assay; format: functional; conditions: OVCAR-3, 48 h
[14] = Growth inhibition of human RXF393 cells after 48 hrs by sulforhodamine B assay; format: functional; conditions: RXF 393, 48 h
DU-145 = assay: Growth inhibition of human DU145 cells after 48 hrs by sulforhodamine B assay; format: functional; conditions: DU-145, 48 h
IGROV-1 = assay: Growth inhibition of human IGROV1 cells after 48 hrs by sulforhodamine B assay; format: functional; conditions: IGROV-1, 48 h
SK-MEL-28 = assay: Growth inhibition of human SK-MEL-28 cells after 48 hrs by sulforhodamine B assay; format: functional; conditions: SK-MEL-28, 48 h
[15] = Growth inhibition of human HCT116 cells after 48 hrs by sulforhodamine B assay; format: functional; conditions: HCT-116, 48 h
[16] = Growth inhibition of human OVCAR5 cells after 48 hrs by sulforhodamine B assay; format: functional; conditions: OVCAR-5, 48 h
[17] = Growth inhibition of human Hs 578T cells after 48 hrs by sulforhodamine B assay; format: functional
NCI-H23 = assay: Growth inhibition of human NCI-H23 cells after 48 hrs by sulforhodamine B assay; format: functional; conditions: NCI-H23, 48 h
[18] = Growth inhibition of human HCC2998 cells after 48 hrs by sulforhodamine B assay; format: functional; conditions: HCC 2998, 48 h
KM12 = assay: Growth inhibition of human KM12 cells after 48 hrs by sulforhodamine B assay; format: functional; conditions: KM12, 48 h
[19] = Growth inhibition of human UACC62 cells after 48 hrs by sulforhodamine B assay; format: functional; conditions: UACC-62, 48 h
[20] = Growth inhibition of human BT549 cells after 48 hrs by sulforhodamine B assay; format: functional; conditions: BT-549, 48 h
HOP-62 = assay: Growth inhibition of human HOP62 cells after 48 hrs by sulforhodamine B assay; format: functional; conditions: HOP-62, 48 h
CAKI-1 = assay: Growth inhibition of human CAKI-1 cells after 48 hrs by sulforhodamine B assay; format: functional; conditions: CAKI-1, 48 h
TK-10 = assay: Growth inhibition of human TK10 cells after 48 hrs by sulforhodamine B assay; format: functional; conditions: TK-10, 48 h
MDA-MB-231 = assay: Growth inhibition of human MDA-MB-231 cells after 48 hrs by sulforhodamine B assay; format: functional; conditions: MDA-MB-231, 48 h
SK-OV-3 = assay: Growth inhibition of human SKOV3 cells after 48 hrs by sulforhodamine B assay; format: functional; conditions: SK-OV-3, 48 h
U-251 = assay: Growth inhibition of human U251 cells after 48 hrs by sulforhodamine B assay; format: functional; conditions: U-251, 48 h
[21] = Growth inhibition of human PC3 cells after 48 hrs by sulforhodamine B assay; format: functional; conditions: PC-3, 48 h
[22] = Growth inhibition of human LOXIMVI cells after 48 hrs by sulforhodamine B assay; format: functional; conditions: LOX IMVI
SK-MEL-2 = assay: Growth inhibition of human SK-MEL-2 cells after 48 hrs by sulforhodamine B assay; format: functional; conditions: SK-MEL-2, 48 h
A498 = assay: Growth inhibition of human A498 cells after 48 hrs by sulforhodamine B assay; format: functional; conditions: A498, 48 h
SNB-19 = assay: Growth inhibition of human SNB19 cells after 48 hrs by sulforhodamine B assay; format: functional; conditions: SNB-19, 48 h
HL-60(TB) = assay: Growth inhibition of human HL-60(TB) cells after 48 hrs by sulforhodamine B assay; format: functional; conditions: HL-60, 48 h
SR = assay: Growth inhibition of human SR cells after 48 hrs by sulforhodamine B assay; format: functional
SW-620 = assay: Growth inhibition of human SW620 cells after 48 hrs by sulforhodamine B assay; format: functional; conditions: SW-620, 48 h
[23] = Growth inhibition of human RPMI8226 cells after 48 hrs by sulforhodamine B assay; format: functional; conditions: RPMI-8226, 48 h
SK-MEL-5 = assay: Growth inhibition of human SK-MEL-5 cells after 48 hrs by sulforhodamine B assay; format: functional; conditions: SK-MEL-5, 48 h
NCI-H522 = assay: Growth inhibition of human NCI-H522 cells after 48 hrs by sulforhodamine B assay; format: functional; conditions: NCI-H522, 48 h
HT-29 = assay: Growth inhibition of human HT-29 cells after 48 hrs by sulforhodamine B assay; format: functional; conditions: HT-29, 48 h
[24] = Growth inhibition of human NCI-ADR-RES cells after 48 hrs by sulforhodamine B assay; format: functional
[25] = Growth inhibition of human OVCAR8 cells after 48 hrs by sulforhodamine B assay; format: functional; conditions: OVCAR-8, 48 h
SN12C = assay: Growth inhibition of human SN12C cells after 48 hrs by sulforhodamine B assay; format: functional
ACHN = assay: Growth inhibition of human ACHN cells after 48 hrs by sulforhodamine B assay; format: functional
NCI-H322M = assay: Growth inhibition of human NCI-H322M cells after 48 hrs by sulforhodamine B assay; format: functional
[26] = Growth inhibition of human SF295 cells after 48 hrs by sulforhodamine B assay; format: functional; conditions: SF-295, 48 h

With `COc1cc(C2C(C#N)=C(N)Oc3cc(O)ccc32)cc(OC)c1OC` (stereo unspecified) the GI50 (MDA-MB-435) was 136 nM, the GI50 [1] was 2800 nM and the GI50 [2] was 301 nM. For the same compound, the GI50 [3] was 513 nM, the GI50 (MCF7) was 324 nM and the EC (Paracentrotus lividus [4]) was 4 µM. It also gave a GI50 (786-0) of 605 nM, a GI50 [5] of 652 nM and an EC (Paracentrotus lividus [6]) greater than 4 µM. The GI50 (MDA-MB-468) was 250 nM, the GI50 (M14) was 375 nM and the GI50 [7] was 852 nM. It also gave a GI50 (SNB-75) of 271 nM, a GI50 [8] of 6490 nM and a GI50 (A549) of 638 nM. For the same compound, the GI50 (SF-268) was 14500 nM, the GI50 [9] was 692 nM and the GI50 (CCRF-CEM) was 375 nM. For the same compound, the GI50 (NCI-H460) was 374 nM, the GI50 (NCI-H226) was 31200 nM and the EC (Paracentrotus lividus [10]) was greater than 4 µM. The GI50 (K562) was 460 nM, the GI50 [11] was 347 nM and the GI50 [12] was 3490 nM. The GI50 [13] was 338 nM, the GI50 [14] was 287 nM and the GI50 (DU-145) was 637 nM. For the same compound, the GI50 (IGROV-1) was 2840 nM, the GI50 (SK-MEL-28) was 934 nM and the GI50 [15] was 453 nM. It also gave a GI50 [16] of 4520 nM, a GI50 [17] of 463 nM and a GI50 (NCI-H23) of 813 nM. For the same compound, the GI50 [18] was 975 nM, the GI50 (KM12) was 451 nM and the GI50 [19] was 358 nM. It also gave a GI50 [20] of 386 nM, a GI50 (HOP-62) of 796 nM and a GI50 (CAKI-1) of 885 nM. For the same compound, the GI50 (TK-10) was 9830 nM, the GI50 (MDA-MB-231) was 927 nM and the GI50 (SK-OV-3) was 560 nM. It also gave a GI50 (U-251) of 349 nM, a GI50 [21] of 462 nM and a GI50 [22] of 523 nM. The GI50 (SK-MEL-2) was 539 nM, the GI50 (A498) was 161 nM and the GI50 (SNB-19) was 811 nM. For the same compound, the GI50 (HL-60(TB)) was 327 nM, the GI50 (SR) was 371 nM and the GI50 (SW-620) was 347 nM. The GI50 [23] was 691 nM, the GI50 (SK-MEL-5) was 305 nM and the GI50 (NCI-H522) was 255 nM. The GI50 (HT-29) was 392 nM, the GI50 [24] was 2320 nM and the GI50 [25] was 836 nM. For the same compound, the GI50 (SN12C) was 790 nM, the GI50 (ACHN) was 922 nM and the GI50 (NCI-H322M) was 783 nM. It also gave a GI50 [26] of 323 nM.
